Test results taken from the NIST ThermoML archive (doi:10.1016/j.jct.2009.01.006).
± gives the expanded uncertainty stated by the source.

Experiments:
[1] = xn = mol fraction of the nth substance listed; settings: 303.15 K, 101 kPa, Liquid, Direct dilatometry
[2] = φn = volume fraction of the nth substance listed; settings: 303.15 K, 101 kPa, Liquid; for speed of sound: Linear variable-path acoustic interferometer
[3] = 303.15 K; for speed of sound: Linear variable-path acoustic interferometer
[4] = refractive index (Na D-line) (dimensionless); settings: 298.15 K; 101.33 kPa; Liquid; Standard Abbe refractometry

CCC(C)=O [butanone] + CN1CCCC1=O
Settings | excess molar volume [m3/mol] | speed of sound [m/s]
[1], x2 = 0.0705 | -7.1e-08 ± 6e-09 | –
[1], x2 = 0.1436 | -1.42e-07 ± 6e-09 | –
[1], x2 = 0.2097 | -1.89e-07 ± 6e-09 | –
[1], x2 = 0.2854 | -2.44e-07 ± 6e-09 | –
[1], x2 = 0.4102 | -2.93e-07 ± 6e-09 | –
[1], x2 = 0.5043 | -3.02e-07 ± 6e-09 | –
[1], x2 = 0.5795 | -2.96e-07 ± 6e-09 | –
[1], x2 = 0.6942 | -2.56e-07 ± 6e-09 | –
[1], x2 = 0.8068 | -1.89e-07 ± 6e-09 | –
[1], x2 = 0.9134 | -9.8e-08 ± 6e-09 | –
[1], x2 = 0.9545 | -5.1e-08 ± 7e-09 | –
[2], φ2 = 0 | – | 1167 ± 2
[2], φ2 = 0.1517 | – | 1214 ± 2
[2], φ2 = 0.2207 | – | 1245 ± 2
[2], φ2 = 0.2988 | – | 1282 ± 2
[2], φ2 = 0.426 | – | 1345 ± 2
[2], φ2 = 0.5205 | – | 1391 ± 2
[2], φ2 = 0.5952 | – | 1421 ± 2
[2], φ2 = 0.7078 | – | 1456 ± 2
[2], φ2 = 0.8167 | – | 1483 ± 2
[2], φ2 = 0.9184 | – | 1519 ± 2

CN1CCCC1=O [N-methylpyrrolidone] + O=C1CCCCC1
[2], φ1 = 1
Settings | mass density [kg/m3] | speed of sound [m/s]
– | 1023.4 ± 5.3 | 1552 ± 2

CN1CCCC1=O [N-methylpyrrolidone] + CC(=O)CC(C)C
[2], φ1 = 1
Settings | mass density [kg/m3] | speed of sound [m/s]
– | 1023.4 ± 5.3 | 1552 ± 2

CCC(=O)CC [pentan-3-one]
[3], Liquid
Settings | mass density [kg/m3] | speed of sound [m/s]
101 kPa | 804.57 ± 5.2 | 1198 ± 2
101.33 kPa | 804.62 ± 5.2 | 1201 ± 2

Settings | refractive index
[4] | 1.3902 ± 0.0008

CCC(=O)CC [pentan-3-one] + CN1CCCC1=O
Settings | excess molar volume [m3/mol] | mass density [kg/m3] | speed of sound [m/s]
[1], x2 = 0.0634 | -1.55e-07 ± 7e-09 | – | –
[1], x2 = 0.1526 | -2.89e-07 ± 7e-09 | – | –
[1], x2 = 0.2446 | -3.57e-07 ± 6e-09 | – | –
[1], x2 = 0.3948 | -3.98e-07 ± 6e-09 | – | –
[1], x2 = 0.4476 | -4.12e-07 ± 6e-09 | – | –
[1], x2 = 0.5371 | -4.2e-07 ± 6e-09 | – | –
[1], x2 = 0.591 | -4.22e-07 ± 6e-09 | – | –
[1], x2 = 0.7146 | -4.13e-07 ± 6e-09 | – | –
[1], x2 = 0.7962 | -3.45e-07 ± 7e-09 | – | –
[1], x2 = 0.9124 | -2.31e-07 ± 7e-09 | – | –
[1], x2 = 0.9626 | -1.06e-07 ± 7e-09 | – | –
[2], φ2 = 0 | – | 804.57 ± 5.2 | 1198 ± 2
[2], φ2 = 0.1401 | – | 837.52 ± 5.2 | 1230 ± 2
[2], φ2 = 0.2265 | – | 857.08 ± 5.2 | 1252 ± 2
[2], φ2 = 0.3711 | – | 889.22 ± 5.2 | 1297 ± 2
[2], φ2 = 0.423 | – | 900.7 ± 5.2 | 1316 ± 2
[2], φ2 = 0.5121 | – | 920.45 ± 5.2 | 1347 ± 2
[2], φ2 = 0.5666 | – | 932.49 ± 5.2 | 1365 ± 2
[2], φ2 = 0.6937 | – | 960.46 ± 5.2 | 1415 ± 2
[2], φ2 = 0.79 | – | 981.3 ± 5.2 | 1452 ± 2
[2], φ2 = 0.904 | – | 1004.83 ± 5.3 | 1502 ± 2

CN1CCCC1=O [N-methylpyrrolidone] + CCCC(C)=O
[2], φ1 = 1
Settings | mass density [kg/m3] | speed of sound [m/s]
– | 1023.4 ± 5.3 | 1552 ± 2

O=C1CCCCC1 [cyclohexanone]
[3], Liquid
Settings | mass density [kg/m3] | speed of sound [m/s]
101 kPa | 937.58 ± 5.2 | 1386 ± 2
101.33 kPa | 937.55 ± 5.2 | 1385 ± 2

Settings | refractive index
[4] | 1.4501 ± 0.0007

CC(=O)CC(C)C [4-methylpentan-2-one] + CN1CCCC1=O
Settings | excess molar volume [m3/mol] | mass density [kg/m3] | speed of sound [m/s]
[1], x2 = 0.0682 | -1.09e-07 ± 7e-09 | – | –
[1], x2 = 0.1202 | -1.82e-07 ± 7e-09 | – | –
[1], x2 = 0.2327 | -2.88e-07 ± 7e-09 | – | –
[1], x2 = 0.3164 | -3.49e-07 ± 7e-09 | – | –
[1], x2 = 0.3727 | -3.78e-07 ± 6e-09 | – | –
[1], x2 = 0.4616 | -4.11e-07 ± 6e-09 | – | –
[1], x2 = 0.5111 | -4.22e-07 ± 6e-09 | – | –
[1], x2 = 0.5711 | -4.24e-07 ± 6e-09 | – | –
[1], x2 = 0.6703 | -4.15e-07 ± 6e-09 | – | –
[1], x2 = 0.7739 | -3.58e-07 ± 7e-09 | – | –
[1], x2 = 0.8589 | -2.73e-07 ± 7e-09 | – | –
[1], x2 = 0.9208 | -1.79e-07 ± 7e-09 | – | –
[1], x2 = 0.9675 | -9.3e-08 ± 7e-09 | – | –
[2], φ2 = 0 | – | 791.24 ± 5.2 | 1168 ± 2
[2], φ2 = 0.0946 | – | 814.41 ± 5.2 | 1198 ± 2
[2], φ2 = 0.1879 | – | 836.88 ± 5.2 | 1232 ± 2
[2], φ2 = 0.2615 | – | 854.5 ± 5.2 | 1259 ± 2
[2], φ2 = 0.3961 | – | 886.44 ± 5.2 | 1310 ± 2
[2], φ2 = 0.4444 | – | 897.82 ± 5.2 | 1332 ± 2
[2], φ2 = 0.6087 | – | 936.2 ± 5.2 | 1385 ± 2
[2], φ2 = 0.7236 | – | 962.58 ± 5.2 | 1422 ± 2
[2], φ2 = 0.8232 | – | 985.02 ± 5.2 | 1456 ± 2
[2], φ2 = 0.8989 | – | 1001.74 ± 5.3 | 1491 ± 2

CCC(C)=O [butanone]
[3], Liquid
Settings | mass density [kg/m3] | speed of sound [m/s]
101 kPa | 794.51 ± 5.2 | 1167 ± 2
101.33 kPa | 794.5 ± 5.2 | 1168 ± 2

Settings | refractive index
[4] | 1.377 ± 0.0008

CN1CCCC1=O [N-methylpyrrolidone]
[3]
Settings | mass density, 101 kPa [kg/m3] | mass density, 101.33 kPa [kg/m3] | speed of sound, 101.33 kPa [m/s]
Crystal | – | 1023.4 ± 5.3 | –
Liquid | 1023.4 ± 5.3 | – | 1552 ± 2

Settings | refractive index
[4] | 1.4674 ± 0.0008

CCCC(C)=O [pentan-2-one] + CN1CCCC1=O
Settings | excess molar volume [m3/mol] | mass density [kg/m3] | speed of sound [m/s]
[1], x2 = 0.0776 | -1.11e-07 ± 7e-09 | – | –
[1], x2 = 0.1284 | -1.74e-07 ± 7e-09 | – | –
[1], x2 = 0.2108 | -2.81e-07 ± 7e-09 | – | –
[1], x2 = 0.2852 | -3.59e-07 ± 7e-09 | – | –
[1], x2 = 0.3669 | -4.39e-07 ± 7e-09 | – | –
[1], x2 = 0.4655 | -4.98e-07 ± 7e-09 | – | –
[1], x2 = 0.5205 | -5.21e-07 ± 7e-09 | – | –
[1], x2 = 0.5851 | -5.28e-07 ± 7e-09 | – | –
[1], x2 = 0.6353 | -5.29e-07 ± 7e-09 | – | –
[1], x2 = 0.7406 | -4.68e-07 ± 7e-09 | – | –
[1], x2 = 0.8612 | -3.15e-07 ± 7e-09 | – | –
[1], x2 = 0.9366 | -1.67e-07 ± 7e-09 | – | –
[1], x2 = 0.9769 | -7.6e-08 ± 7e-09 | – | –
[2], φ2 = 0 | – | 796.54 ± 5.2 | 1202 ± 2
[2], φ2 = 0.1165 | – | 824.33 ± 5.2 | 1231 ± 2
[2], φ2 = 0.193 | – | 842.58 ± 5.2 | 1254 ± 2
[2], φ2 = 0.3417 | – | 877.77 ± 5.2 | 1308 ± 2
[2], φ2 = 0.4382 | – | 900.32 ± 5.2 | 1345 ± 2
[2], φ2 = 0.493 | – | 913.03 ± 5.2 | 1367 ± 2
[2], φ2 = 0.6094 | – | 939.74 ± 5.2 | 1403 ± 2
[2], φ2 = 0.7189 | – | 964.15 ± 5.2 | 1429 ± 2
[2], φ2 = 0.8475 | – | 991.98 ± 5.3 | 1467 ± 2
[2], φ2 = 0.9297 | – | 1009.18 ± 5.3 | 1498 ± 2

CC(=O)CC(C)C [4-methylpentan-2-one]
[3], Liquid
Settings | mass density [kg/m3] | speed of sound [m/s]
101 kPa | 791.24 ± 5.2 | 1168 ± 2
101.33 kPa | 791.25 ± 5.2 | 1172 ± 2

Settings | refractive index
[4] | 1.3935 ± 0.0008

O=C1CCCCC1 [cyclohexanone] + CN1CCCC1=O
Settings | excess molar volume [m3/mol] | mass density [kg/m3] | speed of sound [m/s]
[1], x2 = 0.0657 | 2.7e-08 ± 6e-09 | – | –
[1], x2 = 0.1238 | 4.6e-08 ± 6e-09 | – | –
[1], x2 = 0.2207 | 7.1e-08 ± 6e-09 | – | –
[1], x2 = 0.3217 | 9e-08 ± 6e-09 | – | –
[1], x2 = 0.4262 | 1.13e-07 ± 6e-09 | – | –
[1], x2 = 0.5178 | 1.21e-07 ± 6e-09 | – | –
[1], x2 = 0.5918 | 1.18e-07 ± 6e-09 | – | –
[1], x2 = 0.7236 | 1.09e-07 ± 6e-09 | – | –
[1], x2 = 0.7984 | 9.4e-08 ± 6e-09 | – | –
[1], x2 = 0.9166 | 5.2e-08 ± 6e-09 | – | –
[1], x2 = 0.9604 | 3.2e-08 ± 6e-09 | – | –
[2], φ2 = 0 | – | 937.58 ± 5.2 | 1386 ± 2
[2], φ2 = 0.1156 | – | 947.92 ± 5.2 | 1392 ± 2
[2], φ2 = 0.2076 | – | 954.74 ± 5.2 | 1402 ± 2
[2], φ2 = 0.3053 | – | 962.9 ± 5.2 | 1415 ± 2
[2], φ2 = 0.4073 | – | 971.45 ± 5.2 | 1426 ± 2
[2], φ2 = 0.4984 | – | 979.17 ± 5.2 | 1438 ± 2
[2], φ2 = 0.5729 | – | 985.58 ± 5.2 | 1454 ± 2
[2], φ2 = 0.7078 | – | 997.22 ± 5.2 | 1480 ± 2
[2], φ2 = 0.7856 | – | 1004.04 ± 5.3 | 1496 ± 2
[2], φ2 = 0.9104 | – | 1015.17 ± 5.3 | 1522 ± 2

CCCC(C)=O [pentan-2-one]
[3], Liquid
Settings | mass density [kg/m3] | speed of sound [m/s]
101 kPa | 796.54 ± 5.2 | 1202 ± 2
101.33 kPa | 796.58 ± 5.2 | 1197 ± 2

Settings | refractive index
[4] | 1.3883 ± 0.0008

CN1CCCC1=O [N-methylpyrrolidone] + CCC(=O)CC
[2], φ1 = 1
Settings | mass density [kg/m3] | speed of sound [m/s]
– | 1023.4 ± 5.3 | 1552 ± 2

CN1CCCC1=O [N-methylpyrrolidone] + CCC(C)=O
Settings | speed of sound [m/s]
[2], φ1 = 1 | 1552 ± 2
